Test results: patent US9840478B2 (MERCK SHARP & DOHME CORP., priority 2013, dated 2017)
Where two headings read alike, the source gives them in different places.

Tests used:
wildtype HIV-1 protease = biological target: T1, wildtype HIV-1 protease (Human immunodeficiency virus type 1 group M subtype B, UniProt P04585); experiment: Assay for inhibition of microbial expressed HIV protease (Pepcleav); assay type: biochemical; conditions: wildtype HIV-1 protease expressed in E. coli; peptide substrate; mean of at least two independent experiments
T1 construct: preincubated with the HIV-1 protease (wild type) enzyme in assay buffer; made in house; host or cells: Escherichia coli
Procedure: Assay for Inhibition of Microbial Expressed HIV Protease (“Pepcleav”)
Studies of the inhibition of the wildtype HIV-1 protease (which was expressed in Escherichia coli) were carried out with a peptide substrate [Val-Ser-Gln-Asn-(βnaphtyl)Ala-Pro-Ile-Val]. The inhibitor is first preincubated with the HIV-1 protease (wild type) enzyme in assay buffer (50 mM sodium acetate, pH 5.5, 100 mM NaCl, and 0.1% BSA) for 30 minutes at room temperature. Substrate is added to 400 micromolar in a total volume of 20 microliters containing 20 picomolar HIV-1 protease (final) and the reaction is incubated for 1 hour at 30° C. The reaction is quenched with the addition of formic acid and indinavir to 0.012% and 150 nM final concentrations, respectively. The product formation is determined after separation of product and substrate on a Zorbax Eclipse XDB-C18 column connected to an API 4000 mass spectrometer (Applied Biosystems) with multiple reaction monitoring (transitions were 644.5/428.9 and 615.4/422.2 (M1/M3) for product and indinavir respectively). The extent of inhibition of the reaction is determined from the peak area of the products. Analysis of the products, independently synthesized, provided quantitation standards and confirmation of the product composition.

HIV-1 (H9IIIB strain) = experiment: Cell-based HIV infection assay using a reporter (Cell-Based), MT4-GFP cells; conditions: 50% normal human serum, mean of at least two independent experiments, read-out: Cell-based IP
Procedure, shortened: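 IC50 from 4-parameter dose-response of % viral growth inhibition, using the 48 h/24 h infected-cell ratio scaled between DMSO and a protease/integrase/NNRTI triple-drug control. Assay used MT4 cells with HIV-LTR-GFP reporter, pre-infected 24 h with HIV-1 H9IIIB, in 50% normal human serum.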

[1] = Human immunodeficiency virus 1, MT4-GFP cells infected with HIV-1 H9IIIB

Compound | IC50 (wildtype HIV-1 protease) | IC50 (HIV-1 (H9IIIB strain); [1]) | IC50 (HIV-1 (H9IIIB strain); MT4-GFP cells infected with HIV-1 H9IIIB)
CS(=O)(=O)N1CCNC[C@@H]1CCc1c(F)cncc1NC(=O)[C@@H](N)C(c1ccc(F)cc1)c1ccc(F)cc1 [Example 1, 2S-Amino-3,3-di-(4-fluorophenyl)-N-(5-fluoro-4-(2-(1-methylsulfonylpiperazin-2-yl)ethyl)pyridin-3-yl)propanamide] | 9.7 nM | 67 nM | 
COC(=O)N[C@H](C(=O)Nc1cccc(F)c1CC[C@H]1CNCCN1S(=O)(=O)c1ccccc1)C(c1cccc(F)c1)c1cccc(F)c1 [Example 3, Methyl ((S)-1-((3-fluoro-2-(2-((S)-1-(phenylsulfonyl)piperazin-2-yl)ethyl)phenyl)amino)-3,3-bis(3-fluorophenyl)-1-oxopropan-2-yl)carbamate] | 0.48 nM | 4 nM | 
N[C@H](C(=O)Nc1cncc(F)c1CC[C@H]1CNCCN1S(=O)(=O)c1ccccc1)C(c1ccc(F)cc1)c1ccc(F)cc1 [Example 22, (S)-2-amino-N-(5-fluoro-4-(2-((S)-1-(phenylsulfonyl)piperazin-2-yl)ethyl)pyridin-3-yl)-3,3-bis(4-fluorophenyl)propanamide] | 0.2 nM | 10 nM | 
Nc1ccc(S(=O)(=O)N2CCNC[C@H]2CCc2c(F)cncc2NC(=O)[C@@H](N)C(c2ccc(F)cc2)c2ccc(F)cc2)cc1 [Example 25, (S)-2-amino-N-(4-(2-((R)-1-((4-aminophenyl)sulfonyl)piperazin-2-yl)ethyl)-5-fluoropyridin-3-yl)-3,3-bis(4-fluorophenyl) propanamide] | 1.3 nM |  | 
CS(=O)(=O)N1CCNC[C@@H]1CCc1c(F)cncc1NC(=O)[C@@H](N)[C@@H](c1ccc(F)cc1)c1cc(F)cc(F)c1 [Example 26, (2S,3S)-2-amino-3-(3,5-difluorophenyl)-N-(5-fluoro-4-(2-((S)-1-(methylsulfonyl)piperazin-2-yl)ethyl)pyridin-3-yl)-3-(4-fluorophenyl)propanamide] | 3.5 nM |  | 
N[C@H](C(=O)Nc1cccc(F)c1CC[C@H]1CNCCN1S(=O)(=O)c1ccccc1)C(c1cccc(F)c1)c1cccc(F)c1 [Example 40, 3-fluoro-β-(3-fluorophenyl)-N-(3-fluoro-2-{2-[(2S)-1-(phenylsulfonyl)piperazin-2-yl]ethyl}phenyl)-L-phenylalaninamide] | 0.03 nM | 4.8 nM | 
O=C(CC1(c2ccccc2)CCCNC1)Nc1cncc(F)c1CC[C@H]1CNCCN1S(=O)(=O)C1CC1 (stereo partly drawn) [Example 63, N-(4-{2-[(2S)-1-(cyclopropylsulfonyl)piperazin-2-yl]ethyl}-5-fluoropyridin-3-yl)-2-(3-phenylpiperidin-3-yl)acetamide] | 1300 nM |  | 
CC(C)[C@H](c1ccc(F)cc1)[C@H](N)C(=O)Nc1cncc(F)c1CC[C@H]1CNCCN1S(=O)(=O)C1CC1 [Example 64, (βR)-N-(4-{2-[(2S)-1-(cyclopropylsulfonyl)piperazin-2-yl]ethyl}-5-fluoropyridin-3-yl)-4-fluoro-β-(1-methylethyl)-L-phenylalaninamide] | 70 nM | 95 nM | 
C[C@H]1CNC[C@H](CCc2c(F)cccc2NC(=O)[C@@H](N)[C@@H](c2ccc(F)cc2)c2cc(F)cc(F)c2)N1S(C)(=O)=O [Example 96, (βS)-β-(3,5-difluorophenyl)-4-fluoro-N-(3-fluoro-2-{2-[(2S,6S)-6-methyl-1-(methylsulfonyl)piperazin-2-yl]ethyl}phenyl)-L-phenylalaninamide] | 6.1 nM |  | 24 nM
O=C(C[C@@H](c1ccc(F)cc1)c1cc(F)cc(F)c1)Nc1cncc(F)c1CC[C@H]1CNCCN1S(=O)(=O)C1CC1 [Example 303, (3S)-N-(4-{2-[(2S)-1-(cyclopropylsulfonyl)piperazin-2-yl]ethyl}-5-fluoropyridin-3-yl)-3-(3,5-difluorophenyl)-3-(4-fluorophenyl)propanamide] | 5 nM | 14 nM | 
CS(=O)(=O)NC1CCN(S(=O)(=O)N2CCNC[C@@H]2CCc2c(F)cncc2NC(=O)C[C@@H](c2ccc(F)cc2)c2cc(F)cc(F)c2)CC1 [Example 334, (3S)-3-(3,5-difluorophenyl)-N-(5-fluoro-4-{2-[(2S)-1-({4-[(methylsulfonyl)amino]piperidin-1-yl}sulfonyl)piperazin-2-yl]ethyl}pyridin-3-yl)-3-(4-fluorophenyl)propanamide] | 10 nM | 450 nM | 
CC(=O)NC1CCN(S(=O)(=O)N2CCNC[C@@H]2CCc2c(F)cncc2NC(=O)C[C@@H](c2ccc(F)cc2)c2cc(F)cc(F)c2)CC1 [Example 335, (3S)-N-(4-{2-[(2S)-1-{[4-(acetylamino)piperidin-1-yl]sulfonyl}piperazin-2-yl]ethyl}-5-fluroopyridin-3-yl)-3-(3,5-difluorophenyl)-3-(4-fluorophenyl)propanamide] | 24 nM | 650 nM | 
CS(=O)(=O)C1CCN(S(=O)(=O)N2CCNC[C@@H]2CCc2c(F)cncc2NC(=O)C[C@@H](c2ccc(F)cc2)c2cc(F)cc(F)c2)CC1 [Example 336, (3S)-3-(3,5-difluorophenyl)-N-(5-fluoro-4-{2-[(2S)-1-{[4-(methylsulfonyl)piperidin-1-yl]sulfonyl}piperazin-2-yl]ethyl}pyridin-3-yl)-3-(4-fluorophenyl)propanamide] | 13 nM | 240 nM | 
O=C(C[C@@H](c1ccc(F)cc1)c1cc(F)cc(F)c1)Nc1cncc(F)c1CC[C@H]1CNCCN1S(=O)(=O)N1CC[C@@H](NC(=O)C(F)(F)F)C1 [Example 338, (3S)-3-(3,5-difluorophenyl)-3-(4-fluorophenyl)-N-(5-fluoro-4-{2-[(2S)-1-({(3R)-3-[(trifluoroacetyl)amino]pyrrolidin-1-yl}sulfonyl)piperazin-2-yl]ethyl}pyridin-3-yl)propanamide] | 130 nM | 660 nM | 
O=C(C[C@@H](c1ccc(F)cc1)c1cc(F)cc(F)c1)Nc1cncc(F)c1CC[C@H]1CNCCN1C(=O)Nc1ccccc1 [Example 342, (2S)-2-[2-(3-{[(3S)-3-(3,5-difluorophenyl)-3-(4-fluorophenyl)propanoyl]amino}-5-fluoropyridin-4-yl)ethyl]-N-phenylpiperazine-1-carboxamide] | 250 nM |  | 
